Laboratory results taken from patent US10251886B1, “4-anilinoquinazoline derivative and albumin conjugates thereof” (National Chiao Tung University, priority 2018, dated 2019).
Like-named read-outs stand apart in the source and are kept apart here.

Legend:
A549 cell = test: Cell viability assay (MTT assay), A549 cells; format: cell-based
Procedure: (§1) A549 cell (ATCC number: CCL-185) was a non-small cell lung carcinoma cell line, expressing wild type EGFR and K-RAS mutation (G12S). H1975 cell (ATCC number: CRL-5908) was a non-small cell lung carcinoma cell line expressing EGFR L858R/T790M mutation. A549 and H1975 cells were cultured in a complete medium at 37° C., 5% CO2 within a humidified incubator (310/Thermo, Forma Scientific, Inc., Marietta, Ohio). The complete medium was RPMI-1640 medium (Gibco, Life Technologies, Grand Island, N.Y., USA) supplemented with 10% fetal bovine serum (FBS), penicillin (100 units/mL), streptomycin (100 μg/mL), and sodium bicarbonate.
(§2) The cells were plated in 96-well plates at a density of 1×10^4 cells/well for 16-20 hours. Thereafter, the cells in each well were treated by 0.1 mL of a treating agent for 24 hours. The treating agents for the wells were different in treating chemicals and their concentrations. The treating chemicals were Erlotinib, Erlotinib analogues (CE 1 to 6 and E1), and BSA-conjugated Erlotinib Analogue (E2). Next, the cells were washed with phosphate-buffered saline (PBS) and were further cultured with fresh complete medium for 2 days. Subsequently, the cells were incubated with 0.5 mg/ml of 3-(4,5-dimethylthiazol-2-yl)-2,5-diphenyltetrazolium bromide (MTT) in fresh complete medium for 4 hours, followed by removal of the medium and addition of dimethyl sulfoxide (DMSO, 0.1 mL) to thereby allow […]. The absorbance of the reduced MTT (formazan) was read on a microplate reader (VERSAmax, Molecular Devices Inc., CA) at 565 nm. […] Tables 1 and 2, and FIGS. 1 and 2 show cell viability values for A549 cell using different treating chemicals in different concentrations. Table 3 and FIG. 3 show cell viability values for H1975 cell using two treating chemicals in different concentrations.

H1975 cell = test: Cell viability assay (MTT assay), H1975 cells; format: cell-based; details: treated 24 hours, cultured 2 more days, Table 3
Procedure: as §1, §2

[1] = Homo sapiens, A549, 24 h, read-out: Cell viability (%)

Structure (SMILES) | viability at 5 µM (A549 cell; [1]) [%] | viability at 10 µM (A549 cell; [1]) [%] | viability at 20 µM (A549 cell; [1]) [%] | viability at 40 µM (A549 cell; [1]) [%] | viability at 60 µM (A549 cell; [1]) [%] | also measured
C#Cc1cccc(Nc2ncnc3cc(OCCN)c(OCCOC)cc23)c1 [CE6, 7-(2-aminoethoxy)-N-(3-ethynylphenyl)-6-(2-methoxyethoxy) quinazolin-4-amine] | 75.4 | 74.8 | 74.1 | 62.7 | 58.6 | –
C#Cc1cccc(Nc2ncnc3cc(OCCO)c(OCCOC)cc23)c1 [CE4, 2-{[4-((3-ethynylphenyl)amino)-6-(2-methoxyethoxy)quinazolin-7-yl]oxy}ethanol] | 74.5 | 68.4 | 63.1 | 60.7 | 57.8 | –
C#Cc1cccc(Nc2ncnc3cc(OCCI)c(OCCOC)cc23)c1 [Example E1, N-(3-ethynylphenyl)-7-(2-iodoethoxy)-6-(2-methoxyethoxy)quinazolin-4-amine] | 32.8 | 30.3 | 26.3 | 28 | 24.3 | Cell viability in comparison with the commercial available drug (Erlotinib) (A549 cell; A549 cells, Tables 1 and 2, FIGS. 1 and 2): significantly lower cell viability
C#Cc1cccc(Nc2ncnc3cc(OC)c(OCCOC)cc23)c1 [CE2, N-(3-ethynylphenyl)-7-methoxy-6-(2-methoxyethoxy) quinazolin-4-amine] | 69.5 | 60.9 | 62.4 | 64.5 | 61.6 | –
C#Cc1cccc(Nc2ncnc3cc(OCCOC)c(OCCOC)cc23)c1 [Erlotinib, reference compound] | – | – | – | – | – | Cell viability (%) (H1975 cell; treating chemical 0.5 μM): 98.4% ± 2.7; Cell viability (%) (H1975 cell; treating chemical 1 μM): 93.1% ± 2.5; Cell viability (%) (H1975 cell; treating chemical 5 μM): 75.8% ± 4.5; viability at 0.5 µM (A549 cell; Homo sapiens, A549, 24 h, read-out: Cell viability (%), A549 cell, treating chemical 0.5 μM, treated 24 hours, cultured 2 more days, Table 2): 89.3%; viability at 1 µM (A549 cell; Homo sapiens, A549, 24 h, read-out: Cell viability (%), A549 cell, treating chemical 1 μM, treated 24 hours, cultured 2 more days, Table 2): 89.3%; viability at 5 µM (A549 cell; Homo sapiens, A549, 24 h, read-out: Cell viability (%), A549 cell, treating chemical 5 μM, treated 24 hours, cultured 2 more days, Table 1): 73.8%; viability at 5 µM (A549 cell; Homo sapiens, A549, 24 h, read-out: Cell viability (%), A549 cell, treating chemical 5 μM, treated 24 hours, cultured 2 more days, Table 2): 84.2%; viability at 10 µM (A549 cell; Homo sapiens, A549, 24 h, read-out: Cell viability (%), A549 cell, treating chemical 10 μM, treated 24 hours, cultured 2 more days, Table 1): 71.7%; viability at 20 µM (A549 cell; Homo sapiens, A549, 24 h, read-out: Cell viability (%), A549 cell, treating chemical 20 μM, treated 24 hours, cultured 2 more days, Table 1): 65.9%; viability at 40 µM (A549 cell; Homo sapiens, A549, 24 h, read-out: Cell viability (%), A549 cell, treating chemical 40 μM, treated 24 hours, cultured 2 more days, Table 1): 61.2%; viability at 60 µM (A549 cell; Homo sapiens, A549, 24 h, read-out: Cell viability (%), A549 cell, treating chemical 60 μM, treated 24 hours, cultured 2 more days, Table 1): 58.5%
C#Cc1cccc(Nc2ncnc3cc(OCCOS(C)(=O)=O)c(OCCOC)cc23)c1 [CE5, 2-{[4-((3-ethynylphenyl)amino)-6-(2-methoxyethoxy)quinazolin-7-yl]oxy}ethyl methanesulfonate] | 73.7 | 67.2 | 56.1 | 57.9 | 60.7 | –
C#Cc1cccc(Nc2ncnc3cc(OC)c(OCc4ccccc4)cc23)c1 [CE1, 6-(benzyloxy)-N-(3-ethynylphenyl)-7-methoxyquinazolin-4-amine] | 79.9 | 74.7 | 73 | 71.6 | 63.4 | –
C#Cc1cccc(Nc2ncnc3cc(OCCOC(C)=O)c(OCCOC)cc23)c1 [CE3, 2-{[4-((3-ethynylphenyl)amino)-6-(2-methoxyethoxy)quinazolin-7-yl]oxy}ethyl acetate] | 79.3 | 77.5 | 70.1 | 63 | 59.5 | –
